Converted amounts (≈) assume the structure as drawn. Values belong to the compound of their own block, whether it stands above or below them.
Key:
Assay type in all cases: physicochemical
[1] = Solid form solubility, concentration by HPLC at 24 hours; conditions: listed as Compound 1 Form A
Method: The solubility of Compound 1 in different physical forms was tested in water, 0.1 N HCl, pH 4.5 acetate buffer and pH 6.8 phosphate buffer. At 24 hours of time point, the concentration of Compound 1 was detected by HPLC.

[2] = Long term and accelerated physical and chemical stability test, impurities by HPLC
Method: Long term and accelerated stability studies were conducted in different physical forms of Compound 1, by storing the samples at 25±2° C./60±5% RH and 40±2° C./75±5% RH conditions for up to 6 months. And, the content of the total impurities of each sample was tested by HPLC.

[3] = DVS (Method B) water sorption / hygroscopicity; conditions: 25° C.; for water sorption: at 95% RH
Method: DVS of Form A and U was also measured via an SMS (Surface Measurement Systems) DVS Intrinsic (Method B). The relative humidity at 25° C. was calibrated against deliquescence point of LiCl, Mg(NO3)2, and KCL. Parameters for DVS test are listed as follows. [table]

[4] = Physical stability: storage under humidity/temperature, form checked by XRPD
Method: To evaluate the physicochemical stability, store 1˜3 mg of Forms B, S, M, R, F, H and N samples were stored under 25° C./60% RH or 40° C./75% RH conditions for one week (unsealed) or 80° C. condition for 24 hrs (sealed).

[5] = Storage at RT, form checked by XRPD overlay
Method: Form K was speculated as a methyl acetate solvate.
Thus, Form L was speculated as a metastable anhydrate/hydrate which could be de-solvated from the wet cake from the solvent system.
(peak) before decomposition (FIG. 16B). According to the integration of ^1H NMR result (FIG. 16C), the theoretical weight of chlorobenzene was calculated as 9.8%, which matched with the TGA weight loss. […] After heating the sample to 140° C., more diffraction peaks disappeared. Combined with the TGA, ^1H NMR data and heating experiment, Form P was speculated as a chlorobenzene solvate.

[6] = 25±2° C./60±5% RH and 40±2° C./75±5% RH, up to 6 months
[7] = 25° C./60% RH, one week, unsealed
[8] = 40° C./75% RH, one week, unsealed

solubility ([1]; 0.1 N HCl): 29.36 µg/mL (≈ 33 µM)
solubility ([1]; pH 4.5 acetate buffer): 0.76 µg/mL (≈ 0.854 µM)
solubility ([1]; pH 6.8 phosphate buffer): 0.43 µg/mL (≈ 0.483 µM)
solubility ([1]; water): 0.37 µg/mL (≈ 0.416 µM)
change of chemical purity ([2]; 25±2° C./60±5% RH and 40±2° C./75±5% RH, up to 6 months, listed as Compound 1 Form A): no significant change
total content of impurities ([2]; after 6 months at 40±2° C./75±5% RH, listed as Compound 1 Form A): 0.52%
content of solvent EA ([2]; after storage in the stability study): ~8.8 ×10^4 ppm
content of solvent EA ([2]; before storage (initial)): about 9.5 ×10^4 ppm
total content of impurities ([2]; before storage (initial), listed as Compound 1 Form A): 0.40%
water sorption ([3]; listed as Compound 1 form A): 0.4%
hygroscopicity ([3]; listed as Compound 1 form A): slightly hygroscopic
Compound: CC(C)c1ccccc1[C@@H]1CCCN1C1CC2(CCN(c3ccc(C(=O)NS(=O)(=O)c4ccc(NCC5CCC(C)(O)CC5)c([N+](=O)[O-])c4)c(Oc4cnc5[nH]ccc5c4)c3)CC2)C1 (stereo partly drawn) [Form A, 2-((1H-pyrrolo[2,3-b]pyridin-5-yl)oxy)-N-((4-((((1r,4r)-4-hydroxy-4-methylcyclohexyl)methyl)amino)-3-nitrophenyl)sulfonyl)-4-(2-((S)-2-(2-isopropylphenyl)pyrrolidin-1-yl)-7-azaspiro[3.5]nonan-7-yl)benzamide]
crystal form change [2, 6]: no crystal form and optical purity changes
optical purity change [2, 6]: no crystal form and optical purity changes

form change (XRPD overlay) [4, 7]: a mixture of Forms F and B was observed
form change (XRPD overlay) [4, 8]: a mixture of Forms F and B was observed
form change (XRPD overlay) ([4]; 80° C., sealed, 24 hrs): a mixture of Forms F and B was observed
Compound: CC(C)c1ccccc1[C@@H]1CCCN1C1CC2(CCN(c3ccc(C(=O)NS(=O)(=O)c4ccc(NCC5CCC(C)(O)CC5)c([N+](=O)[O-])c4)c(Oc4cnc5[nH]ccc5c4)c3)CC2)C1 (stereo partly drawn) [Form F, 2-((1H-pyrrolo[2,3-b]pyridin-5-yl)oxy)-N-((4-((((1r,4r)-4-hydroxy-4-methylcyclohexyl)methyl)amino)-3-nitrophenyl)sulfonyl)-4-(2-((S)-2-(2-isopropylphenyl)pyrrolidin-1-yl)-7-azaspiro[3.5]nonan-7-yl)benzamide]

form change (XRPD overlay) [4, 7]: no form change
form change (XRPD overlay) [4, 8]: no form change
Compound: CC(C)c1ccccc1[C@@H]1CCCN1C1CC2(CCN(c3ccc(C(=O)NS(=O)(=O)c4ccc(NCC5CCC(C)(O)CC5)c([N+](=O)[O-])c4)c(Oc4cnc5[nH]ccc5c4)c3)CC2)C1 (stereo partly drawn) [Form H, 2-((1H-pyrrolo[2,3-b]pyridin-5-yl)oxy)-N-((4-((((1r,4r)-4-hydroxy-4-methylcyclohexyl)methyl)amino)-3-nitrophenyl)sulfonyl)-4-(2-((S)-2-(2-isopropylphenyl)pyrrolidin-1-yl)-7-azaspiro[3.5]nonan-7-yl)benzamide]
form change (XRPD overlay) ([4]; 80° C., sealed, 24 hrs): an obvious decrease of crystallinity was observed

form change on storage (XRPD overlay) ([5]; RT, closed HPLC vial, ~5 weeks): converted to Form B of low crystallinity
Compound: CC(C)c1ccccc1[C@@H]1CCCN1C1CC2(CCN(c3ccc(C(=O)NS(=O)(=O)c4ccc(NCC5CCC(C)(O)CC5)c([N+](=O)[O-])c4)c(Oc4cnc5[nH]ccc5c4)c3)CC2)C1 (stereo partly drawn) [Form K, 2-((1H-pyrrolo[2,3-b]pyridin-5-yl)oxy)-N-((4-((((1r,4r)-4-hydroxy-4-methylcyclohexyl)methyl)amino)-3-nitrophenyl)sulfonyl)-4-(2-((S)-2-(2-isopropylphenyl)pyrrolidin-1-yl)-7-azaspiro[3.5]nonan-7-yl)benzamide]

form change on storage ([5]; storage at RT): converted to Form I
Compound: CC(C)c1ccccc1[C@@H]1CCCN1C1CC2(CCN(c3ccc(C(=O)NS(=O)(=O)c4ccc(NCC5CCC(C)(O)CC5)c([N+](=O)[O-])c4)c(Oc4cnc5[nH]ccc5c4)c3)CC2)C1 (stereo partly drawn) [Form L, 2-((1H-pyrrolo[2,3-b]pyridin-5-yl)oxy)-N-((4-((((1r,4r)-4-hydroxy-4-methylcyclohexyl)methyl)amino)-3-nitrophenyl)sulfonyl)-4-(2-((S)-2-(2-isopropylphenyl)pyrrolidin-1-yl)-7-azaspiro[3.5]nonan-7-yl)benzamide]

form change (XRPD overlay) [4, 7]: no form change
form change (XRPD overlay) [4, 8]: no form change
form change (XRPD overlay) ([4]; 80° C., sealed, 24 hrs): no form change
Compound: CC(C)c1ccccc1[C@@H]1CCCN1C1CC2(CCN(c3ccc(C(=O)NS(=O)(=O)c4ccc(NCC5CCC(C)(O)CC5)c([N+](=O)[O-])c4)c(Oc4cnc5[nH]ccc5c4)c3)CC2)C1 (stereo partly drawn) [Form M, 2-((1H-pyrrolo[2,3-b]pyridin-5-yl)oxy)-N-((4-((((1r,4r)-4-hydroxy-4-methylcyclohexyl)methyl)amino)-3-nitrophenyl)sulfonyl)-4-(2-((S)-2-(2-isopropylphenyl)pyrrolidin-1-yl)-7-azaspiro[3.5]nonan-7-yl)benzamide]

form change (XRPD overlay) [4, 7]: converted to Form T
form change (XRPD overlay) [4, 8]: converted to Form T
form change (XRPD overlay) ([4]; 80° C., sealed, 24 hrs): converted to Form T
Compound: CC(C)c1ccccc1[C@@H]1CCCN1C1CC2(CCN(c3ccc(C(=O)NS(=O)(=O)c4ccc(NCC5CCC(C)(O)CC5)c([N+](=O)[O-])c4)c(Oc4cnc5[nH]ccc5c4)c3)CC2)C1 (stereo partly drawn) [Form N, 2-((1H-pyrrolo[2,3-b]pyridin-5-yl)oxy)-N-((4-((((1r,4r)-4-hydroxy-4-methylcyclohexyl)methyl)amino)-3-nitrophenyl)sulfonyl)-4-(2-((S)-2-(2-isopropylphenyl)pyrrolidin-1-yl)-7-azaspiro[3.5]nonan-7-yl)benzamide]

Compound: CC(C)c1ccccc1[C@@H]1CCCN1C1CC2(CCN(c3ccc(C(=O)NS(=O)(=O)c4ccc(NCC5CCC(C)(O)CC5)c([N+](=O)[O-])c4)c(Oc4cnc5[nH]ccc5c4)c3)CC2)C1 (stereo partly drawn) [Form P, 2-((1H-pyrrolo[2,3-b]pyridin-5-yl)oxy)-N-((4-((((1r,4r)-4-hydroxy-4-methylcyclohexyl)methyl)amino)-3-nitrophenyl)sulfonyl)-4-(2-((S)-2-(2-isopropylphenyl)pyrrolidin-1-yl)-7-azaspiro[3.5]nonan-7-yl)benzamide]
form change on storage (XRPD comparison) ([5]; RT, ~4 weeks): some of the diffraction peaks disappeared

form change (XRPD overlay) [4, 7]: no form change was observed
form change (XRPD overlay) [4, 8]: no form change was observed
Compound: CC(C)c1ccccc1[C@@H]1CCCN1C1CC2(CCN(c3ccc(C(=O)NS(=O)(=O)c4ccc(NCC5CCC(C)(O)CC5)c([N+](=O)[O-])c4)c(Oc4cnc5[nH]ccc5c4)c3)CC2)C1 (stereo partly drawn) [Form R, 2-((1H-pyrrolo[2,3-b]pyridin-5-yl)oxy)-N-((4-((((1r,4r)-4-hydroxy-4-methylcyclohexyl)methyl)amino)-3-nitrophenyl)sulfonyl)-4-(2-((S)-2-(2-isopropylphenyl)pyrrolidin-1-yl)-7-azaspiro[3.5]nonan-7-yl)benzamide]
form change (XRPD overlay) ([4]; 80° C., sealed, 24 hrs): converted to a form which was similar to Form S

form change (XRPD overlay) [4, 7]: no form change
form change (XRPD overlay) [4, 8]: no form change
form change (XRPD overlay) ([4]; 80° C., sealed, 24 hrs): no form change
Compound: CC(C)c1ccccc1[C@@H]1CCCN1C1CC2(CCN(c3ccc(C(=O)NS(=O)(=O)c4ccc(NCC5CCC(C)(O)CC5)c([N+](=O)[O-])c4)c(Oc4cnc5[nH]ccc5c4)c3)CC2)C1 (stereo partly drawn) [Form S, 2-((1H-pyrrolo[2,3-b]pyridin-5-yl)oxy)-N-((4-((((1r,4r)-4-hydroxy-4-methylcyclohexyl)methyl)amino)-3-nitrophenyl)sulfonyl)-4-(2-((S)-2-(2-isopropylphenyl)pyrrolidin-1-yl)-7-azaspiro[3.5]nonan-7-yl)benzamide]

change of chemical purity ([2]; 25±2° C./60±5% RH and 40±2° C./75±5% RH, up to 6 months, listed as Compound 1 Form U): no significant change
total content of impurities ([2]; after 6 months at 40±2° C./75±5% RH, listed as Compound 1 Form U): 0.72%
total content of impurities ([2]; before storage (initial), listed as Compound 1 Form U): 0.40%
water sorption ([3]; listed as Compound 1 Form U): 1.4%
hygroscopicity ([3]; listed as Compound 1 Form U): slightly hygroscopicity
Compound: CC(C)c1ccccc1[C@@H]1CCCN1C1CC2(CCN(c3ccc(C(=O)NS(=O)(=O)c4ccc(NCC5CCC(C)(O)CC5)c([N+](=O)[O-])c4)c(Oc4cnc5[nH]ccc5c4)c3)CC2)C1 (stereo partly drawn) [Form U, 2-((1H-pyrrolo[2,3-b]pyridin-5-yl)oxy)-N-((4-((((1r,4r)-4-hydroxy-4-methylcyclohexyl)methyl)amino)-3-nitrophenyl)sulfonyl)-4-(2-((S)-2-(2-isopropylphenyl)pyrrolidin-1-yl)-7-azaspiro[3.5]nonan-7-yl)benzamide]
